Where a SMILES comes first, the peptide text is derived from it. [ ]: non-standard residue; d: D form.
Test system: rat pituitary cells
Assay: Isolated rat pituitary cell culture system: antagonism of LH-RH-stimulated LH release
Assay type: cell-based
Description: Cyclic hexapeptides of the present invention are evaluated as antagonists of LH-RH in an in vitro pituitary cell culture system. This assay system is described in Vale and Brant, Methods Enzymol, 37, 82 (1975), hereby incorporated by reference for this purpose.
For purposes of illustration, the data for cyclo-[Tyr-D-Trp-Leu-Arg-Trp-Pro] (5) in this assay are presented.
At a dose range of 10^-5 to 10^-9 M, compound 5 was tested in combination with a single dose of LHRH (luteinizing hormone release hormone) on rat pituitary cells in vitro for 60 minutes.

## CC(C)C[C@@H]1NC(=O)[C@@H](Cc2c[nH]c3ccccc23)NC(=O)[C@H](Cc2ccc(O)cc2)NC(=O)[C@@H]2CCCN2C(=O)[C@H](Cc2c[nH]c3ccccc23)NC(=O)[C@H](CCCNC(=N)N)NC1=O [Compound 5, cyclo-(Tyr-D-Trp-Leu-Arg-Trp-Pro)] (cyclo(LRWPY[dW]))
All lower doses of compound 5 (below 10^-5 M) in the presence of 5×10^-7, 10^-7, 5×10^-8 and 10^-8 M LHRH
  reduction of LH release: essentially ineffective
Compound 5 at 10^-5 M, LHRH at 10^-6, 5×10^-7, 5×10^-8, 10^-8, 5×10^-9, 10^-9 and 5×10^-10 M, 60 minutes
  antagonism to LHRH: significantly antagonistic
Compound 5 at 10^-7, 10^-8 and 10^-9 M in the presence of 10^-6 M LHRH, 60 minutes
  reduction of LH release: significantly reduced LH release
Compound 5 at 10^-7 M, no LHRH
  effect on LH release (compound alone): does not affect LH release
Greatest antagonistic effect at lower doses of LHRH
  overall conclusion on LHRH antagonism: antagonistic to LHRH
In the presence of 5×10^-9, 10^-9 and 5×10^-10 M LHRH, greatest antagonism at 10^-9 M LHRH
  inhibition of LH release, dose relation: significant dose related inhibition
